Test results: article PMC3773999 (Bioorganic & medicinal chemistry, 2013)

Columns and labels:
melanocortin receptors = settings: ref [28]; cited from earlier work
hMC4R = hMC4R (Homo sapiens, UniProt P32245); settings: saturation binding, Figure 2
Chain of hMC4R (P32245 whole entry): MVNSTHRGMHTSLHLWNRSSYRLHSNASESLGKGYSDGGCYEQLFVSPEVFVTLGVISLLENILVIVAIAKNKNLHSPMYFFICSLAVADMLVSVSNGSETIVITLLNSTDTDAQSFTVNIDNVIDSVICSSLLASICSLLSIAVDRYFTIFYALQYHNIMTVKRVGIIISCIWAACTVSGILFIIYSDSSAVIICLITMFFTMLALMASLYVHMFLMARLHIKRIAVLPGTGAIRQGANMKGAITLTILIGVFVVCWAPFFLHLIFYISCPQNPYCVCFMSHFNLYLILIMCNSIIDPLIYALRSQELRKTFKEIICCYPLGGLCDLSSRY

| non-specific binding relative to probes 3 and 4 (hMC4R) | Molecule | off-rate (melanocortin receptors) |
| --- | --- | --- |
| – | Ac-Ser-Tyr-Ser-Nle-Glu-His-DPhe-Arg-Trp-Gly-Lys-Pro-Val-NH2 [NDP-α-MSH] | approximately eight |
| 20% | N=C(N)NCCC[C@H](NC(=O)[C@@H](Cc1ccccc1)NC(=O)[C@H](Cc1c[nH]cn1)NC(=O)COCC(=O)NCCCOCCOCCOCCCNC(=O)CN(CCN(CCN(CC(=O)O)CC(=O)O)CC(=O)O)CC(=O)O)C(=O)N[C@@H](Cc1c[nH]c2ccccc12)C(N)=O [Probe 2, Eu-DTPA-PEGO-MSH(4)] | – |
